We go through 14 compounds from patent publication US4612372A, “Tylosin derivatives” (Sanraku Incorporated, priority 1984, dated 1986).

A short description of series [1]: Stability against liver homogenate of mice. The format is in vitro ADME, mice (ICB strain). To be noted: for remaining at 1 h: pH 7.2, mouse liver homogenate supernatant, 37° C., contact 60 minutes, read-out: Residual Intact Compound Rate. The protocol: Liver from ICB strain mice was homogenated with a potter's homogenizer (3000 rpm, 10 minutes) together with a 5-fold amount of 0.1M phosphate buffer (pH 7.2). To the supernatant was added 1 ml of a 500 μg/ml (10% methanolic water) of a specimen. After the mixture was reacted at 37° C. for 1 hour, the reaction mixture was heated at 100° C. for 3 minutes. Then, 1 ml of 0.1M phosphate buffer (pH 9.0) was added thereto and extracted with 1 ml of ethyl acetate. The organic layer was subjected to silica gel thin layer chromatograph y (chloroform/methanol/ammonia=15/1.2/0.1). By a chromatographic scanner (283 nm), a formation ratio of the unchanged substance to the hydrolysate was determined and the formation of the hydrolysate was expressed by percentage.

Series [2] relates to resistant bacteria. To be noted: drug-resistant bacteria.
In series [3] the test system is infectious diseases of mice. The series is described as follows: Experiment of treatment for infectious diseases of mice. The format is in vivo.
For another series, the system named is esterase. Description: Hydrolysis by esterase in vivo (particularly in liver).
Series [4] has as its system pathogenic microorganisms. Description: Antibacterial activity in general (in words). The format is cell-based.
For series [5], the system named is resistant bacteria. To be noted: U.S. Pat. No. 4,205,163; cited from earlier work.

For `CCC1OC(=O)CC(O)C(C)C(OC2OC(C)C(OC3CC(C)(O)C(OC(=O)Cc4ccc(S(C)(=O)=O)cc4)C(C)O3)C(N(C)C)C2O)C(CC=O)CC(C)C(=O)C=CC(C)=CC1COC1OC(C)C(O)C(OC)C1OC` (stereo not shown) [Compound 1, 4"-O-(4-Methylsulfonylphenylacetyl)tylosin], the remaining at 1 h in series [1] was determined as 89%.
With `CCC1OC(=O)CC(O)C(C)C(OC2OC(C)C(OC3CC(C)(O)C(OC(=O)Cc4ccc(SC)cc4)C(C)O3)C(N(C)C)C2O)C(CC=O)CC(C)C(=O)C=CC(C)=CC1COC1OC(C)C(O)C(OC)C1OC` (stereo not shown) [Compound 2, 4"-O-(4-Methylthiophenylacetyl)tylosin], in series [1], the remaining at 1 h was 84%.
The same measure, in the same setting: to `CCC1OC(=O)CC(O)C(C)C(OC2OC(C)C(OC3CC(C)(O)C(OC(=O)Cc4ccc(C(C)=O)cc4)C(C)O3)C(N(C)C)C2O)C(CC=O)CC(C)C(=O)C=CC(C)=CC1C` (stereo not shown) [Compound 3] belongs 95%.
`CCC1OC(=O)CC(O)C(C)C(OC2OC(C)C(OC3CC(C)(O)C(OC(=O)Cc4ccc(C(=O)c5ccccc5)cc4)C(C)O3)C(N(C)C)C2O)C(CC=O)CC(C)C(=O)C=CC(C)=CC1COC1OC(C)C(O)C(OC)C1OC` (stereo not shown) [Compound 4, 4"-O-(4-Benzoylphenylacetyl)tylosin]: in series [1], the remaining at 1 h came to 82%.
`CCC1OC(=O)CC(O)C(C)C(OC2OC(C)C(OC3CC(C)(O)C(OC(=O)Cc4ccc(OC)cc4)C(C)O3)C(N(C)C)C2O)C(CC=O)CC(C)C(=O)C=CC(C)=CC1COC1OC(C)C(O)C(OC)C1OC` (stereo not shown) [Compound 5, 4"-O-(4-Methoxyphenylacetyl)tylosin]: the remaining at 1 h in series [1] is 94%.
The same measure, in the same setting: to `CCC1OC(=O)CC(O)C(C)C(OC2OC(C)C(OC3CC(C)(O)C(OC(=O)Cc4ccc(F)cc4)C(C)O3)C(N(C)C)C2O)C(CC=O)CC(C)C(=O)C=CC(C)=CC1COC1OC(C)C(O)C(OC)C1OC` (stereo not shown) [Compound 6, 4"-O-(4-Fluorophenylacetyl)tylosin] belongs 95%; to `CCC1OC(=O)CC(O)C(C)C(OC2OC(C)C(OC3CC(C)(O)C(OS(=O)(=O)Cc4ccc(F)cc4)C(C)O3)C(N(C)C)C2O)C(CC=O)CC(C)C(=O)C=CC(C)=CC1COC1OC(C)C(O)C(OC)C1OC` (stereo not shown) [Compound 7, 4"-O-(4-Fluorobenzylsulfonyl)tylosin], less than 95%; to `CCC1OC(=O)CC(O)C(C)C(OC2OC(C)C(OC3CC(C)(O)C(OC(=O)Cc4ccc(C(C)=O)cc4)C(C)O3)C(N(C)C)C2O)C(CC=O)CC(C)C(=O)C=CC(C)=CC1COC1OC(C)C(O)C(OC)C1OC` (stereo not shown) [Compound 8, 4"-O-(4-Acetylphenylacetyl)tylosin], less than 95%.
Same read-out and setting: to `CCC1OC(=O)CC(O)C(C)C(OC2OC(C)C(OC3CC(C)(O)C(OC(=O)Cc4ccccc4F)C(C)O3)C(N(C)C)C2O)C(CC=O)CC(C)C(=O)C=CC(C)=CC1COC1OC(C)C(O)C(OC)C1OC` (stereo not shown) [Compound 9, 4"-O-(2-Fluorophenylacetyl)tylosin] belongs 95%; to `CCC1OC(=O)CC(OC(C)=O)C(C)C(OC2OC(C)C(OC3CC(C)(O)C(OC(=O)Cc4ccc(C(C)=O)cc4)C(C)O3)C(N(C)C)C2O)C(CC=O)CC(C)C(=O)C=CC(C)=CC1COC1OC(C)C(O)C(OC)C1OC` (stereo not shown) [Compound 10, 3-O-acetyl-4"-O-(4-acetylphenylacetyl)tylosin], less than 95%.
Regarding `CCC1OC(=O)CC(O)C(C)C(OC2OC(C)C(OC3CC(C)(O)C(OC(=O)Cc4ccccc4)C(C)O3)C(N(C)C)C2O)C(CC=O)CC(C)C(=O)C=CC(C)=CC1COC1OC(C)C(O)C(OC)C1OC` (stereo not shown) [Control 1, reference compound], the “stability against liver homogenate (in words)” value in series [1] (liver homogenate of mice) is on record as “good result”. Also, in the series on resistant bacteria [2], the “antibacterial activity against resistant bacteria (in words)” value is listed as “poor in antibacterial activity against resistant bacteria”.
`CCC1OC(=O)CC(O)C(C)C(OC2OC(C)C(OC3CC(C)(O)C(OC(=O)CSc4ccccc4)C(C)O3)C(N(C)C)C2O)C(CC=O)CC(C)C(=O)C=CC(C)=CC1COC1OC(C)C(O)C(OC)C1OC` (stereo not shown) [Control 2, 4"-O-phenylthioacetyltylosin]: the remaining at 1 h in series [1] amounted to 0%. Besides, the “result in experiment of treatment for infectious diseases of mice (in words)” value in series [3] was “merely unsatisfactory results”. For the same compound, in the series with esterase, the “hydrolysis by esterase (in words)” value was “completely hydrolyzed by esterase”. The “antibacterial activity (in words)” value in series [4] is on record as “high antibacterial activity in vitro”. Moreover, the “effectiveness against macrolide-resistant bacteria (in words)” value in the series on resistant bacteria [5] is given as “most effective tylosin derivative against macrolide-resistant bacteria”.
On to `CCC1OC(=O)CC(O)C(C)C(OC2OC(C)C(OC3CC(C)(O)C(OC(=O)Cc4ccccc4)C(C)O3)C(N(C)C)C2O)C(CC=O)CC(C)C(=O)C=CC(C)=CC1COC1OC(C)C(O)C(OC)C1OC` (stereo not shown) [Control 3, reference compound], for which the remaining at 1 h in series [1] is less than 95%.
On the same count and under the same terms, to `CCC1OC(=O)CC(O)C(C)C(OC2OC(C)C(OC3CC(C)(O)C(OS(=O)(=O)Cc4ccccc4)C(C)O3)C(N(C)C)C2O)C(CC=O)CC(C)C(=O)C=CC(C)=CC1COC1OC(C)C(O)C(OC)C1OC` (stereo not shown) [Control 4, reference compound] belongs 0%.
